These are literature values, as cited in patent US20100286080A1, “AQUEOUS COMPOSITION COMPRISING CHITOSAN AND AN ACIDIC DRUG” (The Jordanian Pharmaceutical Manufacturing Co., priority 2007, published 2010).

The conditions of data set [1]: single 200-mg oral dose, fasting subjects.

SMILES strings stand for the structures.

In the case of `CC(C)Cc1ccc(C(C)C(=O)O)cc1` (centres unmarked) [Ibuprofen], the Solubility in water result is on record as “practically insoluble in water”. In addition, the “Time of peak plasma levels after administration” value in data set [1] is given as “about 1 hr”.
